Laboratory results reported in US10485795B2, “FXR (NR1H4) binding and activity modulating compounds” (Gilead Sciences, Inc., priority 2011, dated 2019).
Converted amounts (≈) assume the structure as drawn.

How the values were obtained:
Aqueous solubility assay = assay type: physicochemical; conditions: PBS buffer, kinetic from dmso stock, pH 7.4, theoretical final concentration of 200 μM
Procedure: The aq. solubility in PBS, pH 7.4 was determined as follows. A 10 mM compound stock solution in DMSO was added to PBS (pH 7.4) to reach a theoretical final concentration of 200 μM. The resulting solution/suspension was shaken at 1250 rpm for 1 h and then stored in the dark at rt for 23 h. At this time any precipitate is separated from the solution by centrifugation at 3900 rpm for 30 min. The aq. solubility was determined by comparing the peak area of the principle peak in a calibration standard (200 μM) in an organic solvent (methanol/water 60:40, v/v) with the peak area of the corresponding peak in the buffer sample. As detection method was used HPLC-UV/VIS at 230 nm.

[1] = Parallel Artificial Membrane Permeation Assay (PAMPA); assay type: in vitro ADME; conditions: Flux (%) = (c acceptor well) / sum (c donor well + c acceptor well) × 100 × 2; PBS pH 7.4, 15-16 h at rt
Procedure: For the PAMPA, 5 mM stock solutions of test items were prepared in DMSO. 5 mM stock solutions of reference items were prepared in EtOH (carbamazepine, guanabenz) or in EtOH:H2O 1:1 (v/v) (ceftriaxone), respectively. Compounds were diluted in PBS (pH 7.4) to obtain the starting solutions containing 5% of the respective organic solvent and 250 μM reference compounds or 10 μM test items, respectively. For the assay, a modified procedure of the PAMPA as described by Kansy et al. Kansy et al. (J. Med. Chem. 1998, 41, 1007) was used. The reference compounds for low (ceftriaxone), medium (guanabenz) and high permeation (carbamazepine) were included as internal controls.
Permeation experiments were carried out in a Multiscreen 96 well tray (donor) covered by a 96-well Multiscreen Immobilon (acceptor). The hydrophobic filter material of the Immobilon plate was pre-wetted with 70% ethanol and treated with a solution of lipids (lecithin dissolved in dodecane). The donor plate was filled with test compounds and reference compounds and both plates were inserted into each other and placed onto an orbital shaker for 15 min at 100 rpm. The transport study was started by applying 150 μL PBS-buffer containing the test and reference compounds to the donor plate. After 15-16 h of diffusion at rt, the contents of the acceptor and donor plate were collected and quantified using LC/MS-detection (test items) or by UV spectroscopy using a Spectramax Plus^384 (Molecular Devices) (reference items). The absorption maxima for the reference items ceftriaxone, guanabenz and carbamazepine were 240 nm, 270 nm and 286 nm, respectively. Recovery samples were prepared as described for the permeation assay samples and were incubated in representative vials during the permeation period under the same conditions.
For LC/MS analysis of the test items, 100 μL incubate were removed from acceptor and donor compartment and processed for acetonitrile (ACN) precipitation as described below. Additionally, test item samples from the lipid layer were extracted by flushing each well two times with 150 μL EA. The solutions were collected in 1.5 mL reaction tubes and the solvent was evaporated. The dried residues were resuspended in a PBS/DMSO/ACN mixture reflecting the composition of the acceptor and donor samples (i.e. 100 μL buffer supplemented with 5% DMSO, 200 μL ACN+ISTD). The final solvent content of each sample was 66% ACN.
Samples from donor and acceptor compartments and calibration standards were precipitated by addition of 200 μL ACN/ISTD or 400 μL ACN/ISTD, respectively. After vigorous shaking (10 seconds) and centrifugation (5 min at 4800×g, rt), the particle free supernatants were subjected to LC-MS/MS. Membrane compartments were extracted as described above. […]

| solubility at 24 h (Aqueous solubility assay) [µM] | PAMPA, Membrane permeability in % Flux [1] [% Flux] | SMILES |
| --- | --- | --- |
| 192 (≈ 112 µg/mL) | 21.1 | O=C(O)c1ccc(C2CC(O)(c3ccc(OCc4c(-c5c(Cl)cccc5Cl)noc4C4CC4)cc3Cl)C2)cc1 (stereo not shown) |
| 72 (≈ 39.9 µg/mL) | 20.7 | O=C(O)c1ccc(C2CC2c2ccc(OCc3c(-c4c(Cl)cccc4Cl)noc3C3CC3)cc2Cl)cc1 (stereo not shown) [reference compound] |
